The values that follow come from patent publication US20050282745A1, “Non-mammalian GnRH analogs and uses thereof in regulation of fertility and pregnancy” (priority 2001, published 2005).

Experiment [1] relates to human placental GnRH receptor. Description: Placental GnRH receptor binding, 125I-Buserelin label. The note with it: Buserelin label.
Another experiment has as its system baboon granulosa cells. Description: Baboon granulosa cell culture, progesterone release. Type of experiment: cell-based. An excerpt: The biopotency of chicken II GnRH analogs (SEQ ID NO: 2) in the regulation of baboon ovarian function was studied. The effect of mammalian and chicken II GnRH analogs (SEQ ID NO: 2) on ovarian progesterone release was studied using granulosa cell cultures. The dose-related action of a stable analog of chicken II GnRH (SEQ ID NO: 2) on progesterone production was defined using baboon granulosa cell cultures. After a two hour basal study period, the medium was supplemented with either Buserilin (SEQ ID NO: 10) (10^−7) or a chicken II GnRH analog (SEQ ID NO: 2) (10^−9, 10^−8, 10^−7, 10^−6 M) leaving four control wells. […] This inhibition was sustained after 48 hours of treatment. […] In addition, the action of the analog on three different stromal and three different epithelial endometrial primary cell lines (after 3-5 passages) has been studied and PGE2 determined as indicated in FIG. 31.

Non-standard residues stand in square brackets, D forms with d. Residues, ends and D or L forms follow the SMILES beside them. pGlu = O=C1CC[C@@H](C(=O)O)N1; azaGly = NNC(=O)O

Turning to `N=C(N)NCCC[C@@H](NC(=O)[C@H](Cc1c[nH]cn1)NC(=O)[C@H](CO)NC(=O)[C@H](Cc1c[nH]c2ccccc12)NC(=O)[C@H](Cc1c[nH]cn1)NC(=O)[C@@H]1CCC(=O)N1)C(=O)N[C@@H](Cc1c[nH]c2ccccc12)C(=O)N[C@@H](Cc1ccc(O)cc1)C(=O)N1CCC[C@H]1C(=O)NNC(N)=O` [D-Arg(6)-chicken II GnRH-aza-Gly(10)-amide] ([pGlu]HWSH[dR]WYP[azaGly]-NH2), in experiment [1] (Example II), the “receptor binding potency compared with chicken II GnRH isoform or Buserelin” value is listed as 2 fold and the “receptor binding potency compared with mammalian GnRH” value was determined as 60 fold. Further, in experiment [1] (term placental membranes, read-out: dissociation constant (Kd)), the Kd was determined as 175 ± 59 nM. In addition, the “progesterone release, of untreated controls” value in the experiment with baboon granulosa cells (10^−8M, within 24 hours) was found to be 31%. The “effect on progesterone release, in words” value with baboon granulosa cells (chicken II analog 10^−9 to 10^−6 M, Buserelin 10^−7) is on record as “dose-related inhibition of progesterone release”. Besides, the “concentration of maximal inhibition of progesterone release” value in the experiment with baboon granulosa cells (within 24 hours) is given as 10^−8 M.

By Kd is commonly meant the concentration at which binding is half-saturated.
